{"source": "patent US11447786B2", "about": "“Systems and methods for cellular reprogramming of a plant cell” (PIONEER HI-BRED INTERNATIONAL, INC., priority 2017, dated 2022)", "molecules": {"B1": {"name": "GAMMA ZEIN-ZmWUS2-hexa histidine-tag protein: Gamma-zein cell penetrating peptide WUSCHEL hexahistidine-tagged translational fusion protein (SEQ ID NO:47) (protein)", "chain": "VRLPPPVRLPPPLVRPPPLHHHHHHMAANAGGGGAGGGSGSGSVAAPAVCRPSGSRWTPTPEQIRMLKELYYGCGIRSPSSEQIQRITAMLRQHGKIEGKNVFYWFQNHKARERQKRRLTSLDVNVPAAGAADATTSQLGVLSLSSPPPSGAAPPSPTLGFYAAGNGGGSAVLLDTSSDWGSSGAAMATETCFLQDYMGVTDTGSSSQWPRFSSSDTIMAAAAARAATTRAPETLPLFPTCGDDGGSGSSSYLPFWGAASTTAGATSSVAIQQQHQLQEQYSFYSNSNSTQLAGTGNQDVSATAAAAAALELSLSSWCSPYPAAGSMGHHHHHH", "modifications": "WUS-HISTAG-GZCPP protein sequence"}, "B2": {"name": "ZmWUS2-hexa histidine-tag protein: Purified recombinant Zea mays WUSCHEL2 hexahistidine-tagged protein (SEQ ID NO:2) from baculovirus-infected SF9 insect cells (protein)", "chain": "MAANAGGGGAGGGSGSGSVAAPAVCRPSGSRWTPTPEQIRMLKELYYGCGIRSPSSEQIQRITAMLRQHGKIEGKNVFYWFQNHKARERQKRRLTSLDVNVPAAGAADATTSQLGVLSLSSPPPSGAAPPSPTLGFYAAGNGGGSAVLLDTSSDWGSSGAAMATETCFLQDYMGVTDTGSSSQWPRFSSSDTIMAAAAARAATTRAPETLPLFPTCGDDGGSGSSSYLPFWGAASTTAGATSSVAIQQQHQLQEQYSFYSNSNSTQLAGTGNQDVSATAAAAAALELSLSSWCSPYPAAGSMGHHHHHH", "modifications": "hexahistidine tag"}}, "format_in_all_cases": "cell-based, maize", "key": {"ATCC40520 microspores [1]": {"system": "ATCC40520 microspores", "experiment": "Gene expression analysis of embryo-like structures from control and hemin-treated ATCC40520 cultures", "conditions": "1 μM hemin, 8 days in vitro culture, vs control", "experimental": "Following microspore isolation, ATCC40520 microspores (see U.S. Pat. No. 5,602,310 incorporated herein by reference in its entirety) were cultured in a petri dish in a 9% sucrose induction medium as a control or a 9% sucrose induction medium supplemented with a 1 μM final concentration of hemin (Sigma-Aldrich, catalog # H9039) at 28° C. under dark conditions. After 8 days of in vitro tissue culture, four biological replicates of proliferating embryo-like structures were sampled from each of the control and the hemin-treated ATCC40520 tissue cultures for embryogenesis induction and processed for gene expression analysis using methods known in the art (data not shown)."}, "ATCC40520 microspores [2]": {"system": "ATCC40520 microspores", "experiment": "Microspore embryogenesis in ATCC40520 microspore culture with hemin, MCS/ELS phenotype scoring", "conditions": "1 μM hemin", "experimental": "Following microspore isolation, ATCC40520 microspores (see U.S. Pat. No. 5,602,310 incorporated herein by reference in its entirety) were cultured in a petri dish in a 9% sucrose induction medium as a control or a 9% sucrose induction medium supplemented with a 1 μM final concentration of hemin (Sigma-Aldrich, catalog # H9039) at 28° C. under dark conditions.\n(§1) Following microspore isolation, ATCC40520 microspores and EH, anelite inbred, that is known to be less responsive relative to the ATCC40520 genotype, were each individually cultured in a petri dish in a 9% sucrose induction medium as a control or a 9% sucrose induction medium supplemented with a 1 μM final concentration of hemin at 28° C. under dark conditions.\n(§2) Microspore phenotypes were scored for each of ATCC40520 and EH after 21 days of treatment (+/− hemin). A multicellular structure (MCS) phenotype was scored when a unicellular-derived structure resulting from randomly oriented divisions within a surrounding, intact exine wall was observed. If the surrounding exine was ruptured and a release of cells was observed, then the response was scored as a proliferative embryo-like structure (ELS)."}, "inbred EH microspores [3]": {"system": "inbred EH microspores", "experiment": "Microspore embryogenesis in inbred EH microspore culture with hemin, MCS/ELS phenotype scoring", "conditions": "1 μM hemin", "experimental": "as §1, §2"}, "isolated microspores [4]": {"system": "isolated microspores", "experiment": "Ex situ treatment of isolated microspores with GAMMA ZEIN-ZmWUS2-hexa histidine-tag protein", "conditions": "vs microspores cultured without the protein", "experimental": "GAMMA ZEIN-ZmWUS2-hexa histidine-tag protein expression and purification is performed using a heterologous expression system expressing a plasmid encoding a GAMMA ZEIN-ZmWUS2-hexa histidine-tag (SEQ ID NO:46) sequence transformed into DH10Bac cells to generate baculoviruses. Baculovirus-infected SF9 insect cells are incubated for 72 hours at 27° C. The infected insect cells are harvested by centrifugation. Purification of the recombinant GAMMA ZEIN-ZmWUS2-hexa histidine-tag protein (SEQ ID NO:47) is performed as described in EXAMPLE 3."}, "inbred EH microspores [5]": {"system": "inbred EH microspores", "experiment": "Ex situ treatment of isolated microspores with purified ZmWUS2-hexa histidine-tag protein", "experimental": "WUSCHEL protein expression and purification was performed using a heterologous expression system expressing a plasmid encoding a ZmWUS2-hexa histidine-tag (SEQ ID NO:1) sequence transformed into DH10Bac cells (Thermo Fisher Scientific catalog #10361012) to generate baculoviruses. Baculovirus-infected SF9 insect cells (Thermo Fisher Scientific catalog #12552014) were incubated for 72 hours at 27° C. The infected insect cells were harvested by centrifugation. Purification of the recombinant ZmWUS2-hexa histidine-tag protein (SEQ ID NO:2) was performed using commercially available protein purification methods Following microspore isolation from inbred EH, ZmWUS2-hexa histidine-tag protein treatments were performed for each culture by combining 505 μL of a 4% sucrose induction media, 37.5 μL of molecular grade bovine serum albumin (BSA; 20 mg/ml) (Sigma-Aldrich catalog # B8667) and 7.5 μL of protease inhibitor (Sigma-Aldrich catalog # P9599) and with 250 μL of the purified recombinant ZmWUS2-hexa histidine-tag protein. After gently mixing, the solution was filter sterilized within a sterile environment using a 0.2 μm filter (Pall Corporation catalog #4612). Optionally, an isolation medium was buffered with L-glutathione reduced (Sigma-Aldrich catalog #G4251). […]"}, "[6]": {"system": "microspores isolated from a F1 hybrid tassel of an EHxGR genetic cross", "experiment": "Protein transfection of microspores with ZmWUS2-hexa histidine-tag protein with or without Pro-Ject reagent", "experimental": "Transfection reagent preparation using the cationic lipid based Pro-Ject™ transfection reagent (Thermo Fisher Scientific catalog #89850) was performed by adding 250 μL of methanol to the tube containing the dried transfection reagent, vortexing for 30 seconds at top speed, and dispensing 10 μL of Pro-ject™ plus methanol to 1.5 mL Eppendorf tubes. The transfection reagent was evaporated from the tubes within a chemical fume hood for 4 hours drying time at room temperature and the tubes were stored the tubes at −20° C. until use. Upon use, 100 μL of isolation medium containing 50 ng of the purified ZmWUS2-hexa histidine-tag protein was added to each tube and 900 μL microspore culture medium was dispensed into each transfection tube to re-hydrate the transfection reagent and encapsulate the protein. The 1 mL volume of this solution was combined with a 1 mL volume of microspores isolated from a F1 hybrid tassel of an EHxGR genetic cross. The microspores were suspended in isolation medium and each 2 mL volume was dispensed into a well of a 24 well microtiter plate (Lab Safety Supply catalog #11L794). The isolation medium was further supplemented with bovine serum albumin, protease inhibitor and L-glutathione reduced, with or without the cationic lipid-based Pro-Ject™ transfection reagent, and with or with the ZmWUS2-hexa histidine-tag protein treatments (ZmWUS2-hexa histidine-tag protein buffer as a control for comparison to the ZmWUS2-hexa histidine-tag protein). Each plate was sealed with parafilm and incubated at 28° C. under dark conditions. […] After 18 days, all cells were collected and rinsed using 70 μm Fisherbrand™ cell strainer and evaluated for the activation of cellular reprogramming and the induction of microspore embryogenesis. Microspore viability was scored by counting plasmolyzed, collapsed cells (i.e. “non-viable”) and translucent, spherical cells corresponding to the original state (i.e. “viable”)."}, "isolated microspores [7]": {"system": "isolated microspores", "experiment": "Microspore electroporation with ZmWUS2-hexa histidine-tag protein", "conditions": "in combination with electroporation, vs no protein and no electroporation", "experimental": "A Neon® Transfection System (Thermo Fisher Scientific catalog #MPK5000) and Neon® kit (Thermo Fisher Scientific catalog #MPK10025) is used per the manufacturer's instructions. The ex situ ZmWUS2-hexa histidine-tag protein treatment is prepared by mixing 12.5 μL of ZmWUS2-hexa histidine-tag protein (SEQ ID NO:2; 10 μg total, 0.8 μg/μL stock) with 12.5 μL Lipofectamin 3000 followed by 30 minutes incubation at room temperature. Sucrose is added to the resuspension buffer (buffer R) to a 0.4 M final concentration and filter sterilized. Isolated microspores are resuspended in a 2% (V/V) dimethyl sulfoxide (DMSO)/9% suscrose induction medium solution and incubated for 15 minutes at room temperatures, the microspores are pelleted, and the supernatant is removed. The microspores are washed three times with phosphate buffered saline (PBS; Gibco™ 10010023), resuspended in Electrolytic Buffer E (Thermo Fisher Scientific catalog #MPK5000) and mixed with the ZmWUS2-hexa histidine-tag protein/Lipofectamine 3000 solution followed by room temperature incubation for 10 minutes and then incubation on ice for 10 minutes. DMSO-mediated electroporation was used to increase ZmWUS2-hexa histidine-tag protein uptake into isolated microspores through multiple pulse conditions. […]"}, "[8]": {"conditions": "21 days, vs control EH microspores"}}, "note": "Entries after “also recorded” stand apart in the source; their conditions may differ.", "data": [{"molecule": "hemin", "values": [{"measurement": "expression of embryogenic transcripts", "setting": "ATCC40520 microspores [1]", "result": "increased expression of embryogenic transcripts"}, {"measurement": "expression of pollen associated transcripts", "setting": "ATCC40520 microspores [1]", "result": "decreased expression of pollen associated transcripts"}, {"measurement": "cellular proliferation and development of embryo-like structures (ELS)", "setting": "ATCC40520 microspores [2]; 9% sucrose induction medium, 21 days, vs control", "result": "increased cellular proliferation and the development of embryo-like structures (ELS)"}, {"measurement": "quality of the embryo-like structures (proportion of spherical vs non-spherical embryoids)", "setting": "ATCC40520 microspores [2]; 21 days", "result": "improved the quality of the embryo-like structures"}, {"measurement": "number of ELS in responsive cultures", "setting": "ATCC40520 microspores [2]; after 21 days of treatment (+/- hemin)", "result": "approximately doubled"}, {"measurement": "cellular proliferation in responsive cultures", "setting": "inbred EH microspores [3]; 21 days of culture, vs control", "result": "increased cellular proliferation"}, {"measurement": "percentage of microspores scored with the ELS phenotype", "setting": "inbred EH microspores [3]; [8]", "result": "increased"}, {"measurement": "percentage of microspores scored with the MCS phenotype", "setting": "inbred EH microspores [3]; [8]", "result": "increased"}]}, {"molecule": "B1", "values": [{"measurement": "microspore responsiveness and embryogenesis induction", "setting": "isolated microspores [4]", "result": "improved microspore responsiveness and embryogenesis induction"}]}, {"molecule": "B2", "values": [{"measurement": "microspore responsiveness and embryogenesis induction", "setting": "inbred EH microspores [5]; recalcitrant elite inbred, 4% sucrose induction media, vs culture without protein", "result": "improved microspore responsiveness and embryogenesis induction"}, {"measurement": "embryoid development (morphology)", "setting": "inbred EH microspores [5]; wild type microspores treated with purified protein", "result": "revealed a suspensor with root hairs; also recorded: A microspore-derived embryo with a developed radicle and root hairs was observed"}, {"measurement": "improvement in cell viability", "setting": "[6]; 72 hours post-isolation, 4% sucrose liquid induction medium, on average", "result": 5.1, "unit": "fold"}, {"measurement": "cell proliferation / activation of cellular reprogramming and induction of microspore embryogenesis", "setting": "[6]; combined with cationic lipid-based Pro-Ject transfection reagent, 18 days", "result": "cell proliferation was seen"}, {"measurement": "cell viability after 18 days of culture", "setting": "[6]; without transfection reagent, vs control without protein", "result": "fewer cells were viable in the control treatment"}, {"measurement": "microspore responsiveness and embryogenesis induction", "setting": "isolated microspores [7]", "result": "improved microspore responsiveness and embryogenesis induction"}]}]}
